Measured values taken from ChEMBL document CHEMBL4373715, “Discovery and Biological Evaluations of Halogenated 2,4-Diphenyl Indeno[1,2-b]pyridinol Derivatives as Potent Topoisomerase IIα-Targeted Chemotherapeutic Agents for Breast Cancer” (J Med Chem, 2019).

Columns and labels:
[1] = target: DNA topoisomerase 2-alpha (Homo sapiens) (UniProt P11388); experiment: Inhibition of recombinant human topoisomerase 2alpha-mediated relaxation of supercoiled pBR322 DNA at 100 uM measured after 30 mins by ethidium bromide staining based agarose gel electrophoresis relative to control
[2] = target: T1, DNA topoisomerase 1 (Homo sapiens) (UniProt P11387); experiment: Inhibition of recombinant human topoisomerase 1-mediated relaxation of supercoiled pBR322 DNA at 100 uM measured after 30 mins by ethidium bromide staining based agarose gel electrophoresis relative to control
T1 sequence (whole entry): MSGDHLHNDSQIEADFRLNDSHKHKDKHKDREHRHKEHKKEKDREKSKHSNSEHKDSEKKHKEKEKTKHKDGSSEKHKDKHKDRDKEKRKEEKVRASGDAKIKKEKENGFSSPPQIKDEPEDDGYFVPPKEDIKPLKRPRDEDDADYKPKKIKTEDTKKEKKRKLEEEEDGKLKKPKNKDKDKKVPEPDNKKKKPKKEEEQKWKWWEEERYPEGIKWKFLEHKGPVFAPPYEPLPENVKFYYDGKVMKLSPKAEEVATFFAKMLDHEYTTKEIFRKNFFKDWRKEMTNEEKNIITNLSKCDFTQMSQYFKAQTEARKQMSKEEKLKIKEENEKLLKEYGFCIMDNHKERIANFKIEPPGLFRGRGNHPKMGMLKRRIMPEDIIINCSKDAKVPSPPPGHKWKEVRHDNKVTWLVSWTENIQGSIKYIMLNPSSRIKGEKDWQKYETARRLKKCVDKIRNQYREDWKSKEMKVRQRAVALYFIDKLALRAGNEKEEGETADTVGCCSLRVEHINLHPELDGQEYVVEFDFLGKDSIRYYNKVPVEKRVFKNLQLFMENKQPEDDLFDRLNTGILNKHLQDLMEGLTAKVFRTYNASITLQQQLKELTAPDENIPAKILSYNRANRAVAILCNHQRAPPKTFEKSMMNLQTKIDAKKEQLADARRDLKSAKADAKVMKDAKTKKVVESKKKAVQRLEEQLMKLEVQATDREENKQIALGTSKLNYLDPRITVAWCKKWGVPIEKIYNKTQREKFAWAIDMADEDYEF

T47D = experiment: Antiproliferative activity against human T47D cells measured after 72 hrs by EZ-Cytox assay; format: functional, cell-based
HCT-15 = experiment: Antiproliferative activity against human HCT15 cells measured after 72 hrs by EZ-Cytox assay; format: functional, cell-based; conditions: HCT-15, 72 h
HeLa = experiment: Antiproliferative activity against human HeLa cells measured after 72 hrs by EZ-Cytox assay; format: functional, cell-based
DU-145 = experiment: Antiproliferative activity against human DU145 cells measured after 72 hrs by EZ-Cytox assay; format: functional, cell-based; conditions: DU-145, 72 h
[3] = target: DNA topoisomerase 2-alpha (Homo sapiens) (UniProt P11388); experiment: Inhibition of recombinant human topoisomerase 2alpha-mediated relaxation of supercoiled pBR322 DNA at 20 uM measured after 30 mins by ethidium bromide staining based agarose gel electrophoresis relative to control

Chain of DNA topoisomerase 2-alpha (Homo sapiens) (P11388 whole entry): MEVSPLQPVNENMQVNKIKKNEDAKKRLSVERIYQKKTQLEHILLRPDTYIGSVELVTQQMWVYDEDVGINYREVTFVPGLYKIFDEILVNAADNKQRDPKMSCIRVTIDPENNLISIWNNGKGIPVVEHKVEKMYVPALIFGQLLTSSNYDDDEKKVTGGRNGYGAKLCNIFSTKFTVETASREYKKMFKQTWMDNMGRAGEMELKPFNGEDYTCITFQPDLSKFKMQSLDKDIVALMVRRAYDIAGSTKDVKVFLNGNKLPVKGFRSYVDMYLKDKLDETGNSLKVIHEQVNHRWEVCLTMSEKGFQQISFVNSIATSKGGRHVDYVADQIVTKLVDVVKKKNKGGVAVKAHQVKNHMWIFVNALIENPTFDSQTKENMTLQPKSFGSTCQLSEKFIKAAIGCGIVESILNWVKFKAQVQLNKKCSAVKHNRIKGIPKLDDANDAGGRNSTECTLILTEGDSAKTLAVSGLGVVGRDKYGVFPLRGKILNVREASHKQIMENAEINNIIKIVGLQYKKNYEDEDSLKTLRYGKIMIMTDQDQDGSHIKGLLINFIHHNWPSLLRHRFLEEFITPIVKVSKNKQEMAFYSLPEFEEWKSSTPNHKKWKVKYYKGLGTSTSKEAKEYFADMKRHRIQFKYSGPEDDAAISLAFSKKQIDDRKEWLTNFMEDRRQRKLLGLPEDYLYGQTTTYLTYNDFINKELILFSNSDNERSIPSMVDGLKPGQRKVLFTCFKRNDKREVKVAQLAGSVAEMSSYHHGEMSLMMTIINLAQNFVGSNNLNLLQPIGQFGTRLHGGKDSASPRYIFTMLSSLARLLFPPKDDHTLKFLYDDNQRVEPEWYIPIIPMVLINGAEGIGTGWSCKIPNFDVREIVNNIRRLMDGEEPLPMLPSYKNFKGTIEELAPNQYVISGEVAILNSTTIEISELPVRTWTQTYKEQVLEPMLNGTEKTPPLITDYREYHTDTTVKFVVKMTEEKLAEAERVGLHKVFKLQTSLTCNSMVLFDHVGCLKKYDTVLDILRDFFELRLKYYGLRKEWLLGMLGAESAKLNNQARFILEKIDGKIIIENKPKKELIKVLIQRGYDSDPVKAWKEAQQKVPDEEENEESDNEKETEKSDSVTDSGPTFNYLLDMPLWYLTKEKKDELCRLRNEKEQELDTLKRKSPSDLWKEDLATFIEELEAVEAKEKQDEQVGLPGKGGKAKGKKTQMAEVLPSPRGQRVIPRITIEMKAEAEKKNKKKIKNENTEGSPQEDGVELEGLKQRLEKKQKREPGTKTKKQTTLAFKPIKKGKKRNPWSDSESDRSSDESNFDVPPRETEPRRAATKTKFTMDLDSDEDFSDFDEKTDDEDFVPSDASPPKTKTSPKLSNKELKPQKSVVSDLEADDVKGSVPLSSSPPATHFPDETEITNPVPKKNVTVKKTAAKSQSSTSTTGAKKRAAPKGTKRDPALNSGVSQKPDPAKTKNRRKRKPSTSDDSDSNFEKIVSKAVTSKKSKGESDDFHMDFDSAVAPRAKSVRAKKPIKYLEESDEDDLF

| inhibition [1] | inhibition [2] | inhibition [3] | SMILES | IC50 (T47D) | IC50 (HCT-15) | IC50 (HeLa) | IC50 (DU-145) |
| --- | --- | --- | --- | --- | --- | --- | --- |
| 83.9% | 0% | 25.3% | Oc1ccccc1-c1cc(-c2ccc(Cl)cc2)nc2c1Cc1cccc(O)c1-2 | 2.41 µM | 1.23 µM | 5.31 µM | 0.55 µM |
| 88.7% | 3.9% | 38.3% | Oc1cccc(-c2cc(-c3ccccc3Cl)nc3c2Cc2ccc(O)cc2-3)c1 | 0.55 µM | 3.04 µM | > 50 µM | 0.57 µM |
| 80.2% | 0% | 37.8% | Oc1cccc(-c2cc(-c3cccc(Cl)c3)nc3c2Cc2cc(O)ccc2-3)c1 | 0.86 µM | 1.62 µM | 5.99 µM | 3.21 µM |
| 21.4% | 2.9% | 0% | Oc1ccc2c(c1)-c1nc(-c3ccccc3O)cc(-c3ccc(Cl)cc3)c1C2 | > 50 µM | > 50 µM | > 50 µM | > 50 µM |
| 80.7% | 0% | 4.8% | Oc1ccccc1-c1cc(-c2cccc(F)c2)nc2c1Cc1c(O)cccc1-2 | 1.25 µM | 2.35 µM | 3.92 µM | 3.94 µM |
| 6% | 0% | – | Oc1ccc2c(c1)Cc1c(-c3ccccc3O)cc(-c3ccc(F)cc3)nc1-2 | 3.14 µM | 4.61 µM | 14.3 µM | 4.76 µM |
| 8.4% | 0% | – | Oc1ccccc1-c1cc(-c2cccc(F)c2)nc2c1Cc1cccc(O)c1-2 | 0.74 µM | 5.03 µM | 7.9 µM | 9.97 µM |
| 27.3% | 2.3% | – | Oc1cccc(-c2cc(-c3ccc(F)cc3)nc3c2Cc2cccc(O)c2-3)c1 | 2.24 µM | 4.04 µM | 8.81 µM | 3.3 µM |
| 10.9% | 0.7% | – | Oc1cccc(-c2cc(-c3ccc(C(F)(F)F)cc3)nc3c2Cc2c(O)cccc2-3)c1 | 6.15 µM | 6.98 µM | 6.3 µM | 5.01 µM |
| 27% | 0% | – | Oc1ccc2c(c1)-c1nc(-c3ccccc3F)cc(-c3ccccc3O)c1C2 | 0.61 µM | 2.98 µM | 4.36 µM | 4.07 µM |
| 13.4% | 0% | – | Oc1ccc2c(c1)Cc1c(-c3ccccc3O)cc(-c3ccccc3F)nc1-2 | 0.7 µM | 3.37 µM | 4.94 µM | 3.82 µM |
| 23.3% | 0% | – | Oc1ccc2c(c1)-c1nc(-c3ccc(F)cc3)cc(-c3ccccc3O)c1C2 | 0.19 µM | 3.13 µM | 4.38 µM | 3.49 µM |
| 10.6% | 12.2% | – | Oc1ccc(-c2cc(-c3ccccc3F)nc3c2Cc2cc(O)ccc2-3)cc1 | 1.39 µM | 3.01 µM | 4.84 µM | 1.26 µM |
| 28% | 0% | – | Oc1ccc2c(c1)Cc1c(-c3ccccc3O)cc(-c3cccc(F)c3)nc1-2 | 0.86 µM | 4.23 µM | 2.43 µM | 3.13 µM |
| 17.1% | 8% | – | Oc1ccc(-c2cc(-c3ccc(F)cc3)nc3c2Cc2cc(O)ccc2-3)cc1 | 1.85 µM | 4.4 µM | 3.84 µM | 1.59 µM |
| 15.3% | 5.4% | – | Oc1ccc(-c2cc(-c3ccccc3F)nc3c2Cc2c(O)cccc2-3)cc1 | 0.87 µM | 2.81 µM | 6.19 µM | 1.81 µM |
| 1.2% | 1% | – | Oc1ccccc1-c1cc(-c2ccccc2)c2c(n1)-c1c(O)cccc1C2 | > 50 µM | > 50 µM | > 50 µM | 9.61 µM |
| 22.4% | 9.7% | – | Oc1cccc(-c2cc(-c3ccccc3F)nc3c2Cc2c(O)cccc2-3)c1 | 2.71 µM | 4.98 µM | 6.75 µM | 2.03 µM |
| 3.5% | 0% | – | Oc1cccc(-c2cc(-c3ccccc3)c3c(n2)-c2cc(O)ccc2C3)c1 | > 50 µM | > 50 µM | > 50 µM | 0.42 µM |
| 28.1% | 16.3% | – | Oc1cccc(-c2cc(-c3ccccc3F)nc3c2Cc2ccc(O)cc2-3)c1 | 2.97 µM | 2.96 µM | 3.74 µM | 0.4 µM |

The remaining lines, values behind:

| SMILES | inhibition [1] | inhibition [2] | inhibition [3] | IC50 (T47D) | IC50 (HCT-15) | IC50 (HeLa) | IC50 (DU-145) |
| --- | --- | --- | --- | --- | --- | --- | --- |
| Oc1cccc(-c2cc(-c3ccccc3Cl)nc3c2Cc2cccc(O)c2-3)c1 | 89.6% | 6.3% | 10.9% | 0.12 µM | 3.82 µM | 5.25 µM | 0.24 µM |
| Oc1cccc(-c2cc(-c3cccc(Cl)c3)c3c(n2)-c2c(O)cccc2C3)c1 | 71.9% | 8.9% | 0.3% | > 50 µM | > 50 µM | > 50 µM | 17.1 µM |
| Oc1ccc2c(c1)Cc1c(-c3ccccc3O)cc(-c3cccc(C(F)(F)F)c3)nc1-2 | 85.4% | 0% | 4.1% | 0.7 µM | 3.89 µM | 3.1 µM | 1.72 µM |
| Oc1ccccc1-c1cc(-c2ccc(Cl)cc2)c2c(n1)-c1cccc(O)c1C2 | 71.6% | 8.4% | 1.5% | > 50 µM | > 50 µM | > 50 µM | 12.8 µM |
| Oc1ccc(-c2cc(-c3ccccc3Cl)c3c(n2)-c2ccc(O)cc2C3)cc1 | 80% | 11.9% | 7% | 2.7 µM | 4.27 µM | 4.92 µM | 3.25 µM |
| Oc1ccccc1-c1cc(-c2cccc(Cl)c2)c2c(n1)-c1c(O)cccc1C2 | 74.5% | 0% | 2.4% | 1.97 µM | 2.46 µM | 14.3 µM | 2.82 µM |
| Oc1ccc(-c2cc(-c3cccc(Cl)c3)c3c(n2)-c2cccc(O)c2C3)cc1 | 75.3% | 6.1% | 2.2% | 1.92 µM | 2.39 µM | 1.66 µM | 1.64 µM |
| Oc1ccccc1-c1cc(-c2ccccc2)c2c(n1)-c1cccc(O)c1C2 | 1.1% | 6.6% | – | 6.43 µM | > 50 µM | 1.83 µM | 2.49 µM |
| Oc1ccc(-c2cc(-c3ccccc3)nc3c2Cc2c(O)cccc2-3)cc1 | 1.5% | 4.4% | – | 2.89 µM | 2.78 µM | 1.94 µM | 1.28 µM |
| Oc1cccc(-c2cc(-c3ccccc3)nc3c2Cc2ccc(O)cc2-3)c1 | 1.2% | 0.5% | – | 0.84 µM | 1.37 µM | 1.38 µM | 1.57 µM |
| Oc1ccc2c(c1)-c1nc(-c3ccccc3O)cc(-c3ccccc3)c1C2 | 2.8% | 0% | – | > 50 µM | > 50 µM | > 50 µM | 1.87 µM |
| Oc1ccc(-c2cc(-c3cccc(F)c3)nc3c2Cc2ccc(O)cc2-3)cc1 | 6.2% | 3% | – | 0.7 µM | 4.49 µM | 8.63 µM | 4.83 µM |
| Oc1ccc(-c2cc(-c3ccccc3)nc3c2Cc2cccc(O)c2-3)cc1 | 4% | 10.2% | – | > 50 µM | > 50 µM | > 50 µM | 4.13 µM |
| Oc1cccc(-c2cc(-c3cccc(F)c3)nc3c2Cc2cccc(O)c2-3)c1 | 17.8% | 14% | – | 1.16 µM | > 50 µM | 15 µM | 0.94 µM |
| Oc1cccc(-c2cc(-c3ccc(F)cc3)nc3c2Cc2c(O)cccc2-3)c1 | 27.8% | 26.2% | – | 1.72 µM | 2.68 µM | 6.71 µM | 0.56 µM |
| Oc1ccc(-c2cc(-c3ccccc3)nc3c2Cc2ccc(O)cc2-3)cc1 | 2.4% | 6% | – | 2.99 µM | > 50 µM | > 50 µM | 1.38 µM |
